Data as given in patent publication US20260085077A1, “HETEROCYCLIC DERIVATIVES AS JANUS KINASE INHIBITORS” (CHIESI FARMACEUTICI S.P.A., priority 2022, published 2026).

System: IL-13 induced pSTAT6 in BEAS-2B human cell line
Experiment: Inhibition of IL-13 induced pSTAT6 in BEAS
Format: cell-based
Conditions: IL-13 induced pSTAT6, BEAS-2B cells, ELISA
How it was run: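 BEAS-2B cells, cultured 48 h, were pretreated with compounds 30 min, then stimulated with IL-13 for 30 min. Phospho-STAT6 (Tyr641) in lysates quantified by sandwich ELISA; 11-point 5-fold series from 10 μM […], duplicate, IC50 fitted with QC (Z′≥0.35, Hill slope 0.5-5, S:B>2).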

## COc1cc2c(cc1-n1nc(NCCN(C)C)c3cnc(Nc4ncc[nH]c4=O)cc31)OCCN2 [Example 74, 3-((3-((2-(dimethylamino)ethyl)amino)-1-(6-methoxy-3,4-dihydro-2H-benzo[b][1,4]oxazin-7-yl)-1H-pyrazolo[4,3-c]pyridin-6-yl)amino)pyrazin-2(1H)-one]
  IC50: 50.1 to 501 nM

## COc1cc2c(cc1-n1nc(C(=O)NCCCN(C)C)c3cnc(Nc4ncc[nH]c4=O)cc31)OCCN2 [Example 75, N-(3-(dimethylamino)propyl)-1-(6-methoxy-3,4-dihydro-2H-benzo[b][1,4]oxazin-7-yl)-6-((3-oxo-3,4-dihydropyrazin-2-yl)amino)-1H-pyrazolo[4,3-c]pyridine-3-carboxamide]
  IC50: 50.1 to 501 nM

## COc1cc2c(cc1-n1nc(C(=O)NCCCN3CCC(F)(F)CC3)c3cnc(Nc4ncc[nH]c4=O)cc31)OCCN2 [Example 76, N-(3-(4,4-difluoropiperidin-1-yl)propyl)-1-(6-methoxy-3,4-dihydro-2H-benzo[b][1,4]oxazin-7-yl)-6-((3-oxo-3,4-dihydropyrazin-2-yl)amino)-1H-pyrazolo[4,3-c]pyridine-3-carboxamide]
  IC50: 5.01 to 50.1 nM

## COc1cc2c(cc1-n1nc(C(=O)NCCN3CC(=O)OC(C)(C)C3)c3cnc(-c4cnn5cccnc45)cc31)OCCN2 [Example 77, N-(2-(2,2-dimethyl-6-oxomorpholino)ethyl)-1-(6-methoxy-3,4-dihydro-2H-benzo[b][1,4]oxazin-7-yl)-6-(pyrazolo[1,5-a]pyrimidin-3-yl)-1H-pyrazolo[4,3-c]pyridine-3-carboxamide]
  IC50: 5.01 to 50.1 nM

## CN(C)CCCNC(=O)c1nn(-c2cc3c(cc2OC(F)F)NCCO3)c2cc(-c3cnn4cccnc34)ncc12 [Example 78, 1-(6-(difluoromethoxy)-3,4-dihydro-2H-benzo[b][1,4]oxazin-7-yl)-N-(3-(dimethylamino)propyl)-6-(pyrazolo[1,5-a]pyrimidin-3-yl)-1H-pyrazolo[4,3-c]pyridine-3-carboxamide]
  IC50: 5.01 to 50.1 nM

## COc1cc2c(cc1-n1nc(C(=O)NCCN3CCC(C(N)=O)CC3)c3cnc(-c4cnn5cccnc45)cc31)OCCN2 [Example 79, N-(2-(4-carbamoylpiperidin-1-yl)ethyl)-1-(6-methoxy-3,4-dihydro-2H-benzo[b][1,4]oxazin-7-yl)-6-(pyrazolo[1,5-a]pyrimidin-3-yl)-1H-pyrazolo[4,3-c]pyridine-3-carboxamide]
  IC50: 50.1 to 501 nM

## COc1cc2c(cc1-n1nc(C(=O)NCCN3CC[C@@H](C(N)=O)C3)c3cnc(-c4cnn5cccnc45)cc31)OCCN2 [Example 80, (R)-N-(2-(3-carbamoylpyrrolidin-1-yl)ethyl)-1-(6-methoxy-3,4-dihydro-2H-benzo[b][1,4]oxazin-7-yl)-6-(pyrazolo[1,5-a]pyrimidin-3-yl)-1H-pyrazolo[4,3-c]pyridine-3-carboxamide]
  IC50: 50.1 to 501 nM

## COc1cc2c(cc1-n1nc(C(=O)NCCN3CC4(COC(=O)C4)C3)c3cnc(-c4cnn5cccnc45)cc31)OCCN2 [Example 81, 1-(6-methoxy-3,4-dihydro-2H-benzo[b][1,4]oxazin-7-yl)-N-(2-(7-oxo-6-oxa-2-azaspiro[3.4]octan-2-yl)ethyl)-6-(pyrazolo[1,5-a]pyrimidin-3-yl)-1H-pyrazolo[4,3-c]pyridine-3-carboxamide]
  IC50: 5.01 to 50.1 nM

## COc1cc2c(cc1-n1nc(C(=O)NCCN3CCC4(COC4)C3)c3cnc(-c4cnn5cccnc45)cc31)OCCN2 [Example 82, N-(2-(2-oxa-6-azaspiro[3.4]octan-6-yl)ethyl)-1-(6-methoxy-3,4-dihydro-2H-benzo[b][1,4]oxazin-7-yl)-6-(pyrazolo[1,5-a]pyrimidin-3-yl)-1H-pyrazolo[4,3-c]pyridine-3-carboxamide]
  IC50: 5.01 to 50.1 nM

## COc1cc2c(cc1-n1nc(C(=O)NCCN3CC(=O)OC(C)C3)c3cnc(-c4cnn5cccnc45)cc31)OCCN2 (stereo not shown) [Example 83, 1-(6-methoxy-3,4-dihydro-2H-benzo[b][1,4]oxazin-7-yl)-N-(2-(2-methyl-6-oxomorpholino)ethyl)-6-(pyrazolo[1,5-a]pyrimidin-3-yl)-1H-pyrazolo[4,3-c]pyridine-3-carboxamide]
  IC50: 50.1 to 501 nM

## COc1cc2c(cc1-n1nc(NC(=O)C3CCN(C)CC3)c3cnc(-c4cnn5cccnc45)cc31)OCCN2 [Example 84, N-(1-(6-methoxy-3,4-dihydro-2H-benzo[b][1,4]oxazin-7-yl)-6-(pyrazolo[1,5-a]pyrimidin-3-yl)-1H-pyrazolo[4,3-c]pyridin-3-yl)-1-methylpiperidine-4-carboxamide]
  IC50: 5.01 to 50.1 nM

## COc1cc2c(cc1-n1nc(C(=O)NCCN3CCC(C4(O)COC4)CC3)c3cnc(-c4cnn5cccnc45)cc31)OCCN2 [Example 85, N-(2-(4-(3-hydroxyoxetan-3-yl)piperidin-1-yl)ethyl)-1-(6-methoxy-3,4-dihydro-2H-benzo[b][1,4]oxazin-7-yl)-6-(pyrazolo[1,5-a]pyrimidin-3-yl)-1H-pyrazolo[4,3-c]pyridine-3-carboxamide]
  IC50: 5.01 to 50.1 nM

## COc1cc2c(cc1-n1nc(NC(=O)OCCSC3CCOC3=O)c3cnc(-c4cnn5cccnc45)cc31)CCCN2 (stereo not shown) [Example 86, 2-((2-oxotetrahydrofuran-3-yl)thio)ethyl (1-(7-methoxy-1,2,3,4-tetrahydroquinolin-6-yl)-6-(pyrazolo[1,5-a]pyrimidin-3-yl)-1H-pyrazolo[4,3-c]pyridin-3-yl)carbamate]
  IC50: 5.01 to 50.1 nM
